Active and inactive are the calls of the source.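 The calls were made as follows: active = signal decrease with fitted half-maximal dose at or below ten times the highest valid tested dose; inconclusive = poor fit, or flat fit at 30 to 70% inhibition; inactive = the rest.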
biological target: Zinc finger protein mex-5 (Caenorhabditis elegans) (UniProt Q9XUB2); assay: inhibitors of MEX-5 RNA binding, dose response, biochemical, fluorescence polarization, C. elegans, cherry-picked, round 3 (AID 493250); conditions: purified MEX-5-MBP, FITC-TCR2 RNA fluorescence polarization
Sequence (Q9XUB2 whole entry, looked up): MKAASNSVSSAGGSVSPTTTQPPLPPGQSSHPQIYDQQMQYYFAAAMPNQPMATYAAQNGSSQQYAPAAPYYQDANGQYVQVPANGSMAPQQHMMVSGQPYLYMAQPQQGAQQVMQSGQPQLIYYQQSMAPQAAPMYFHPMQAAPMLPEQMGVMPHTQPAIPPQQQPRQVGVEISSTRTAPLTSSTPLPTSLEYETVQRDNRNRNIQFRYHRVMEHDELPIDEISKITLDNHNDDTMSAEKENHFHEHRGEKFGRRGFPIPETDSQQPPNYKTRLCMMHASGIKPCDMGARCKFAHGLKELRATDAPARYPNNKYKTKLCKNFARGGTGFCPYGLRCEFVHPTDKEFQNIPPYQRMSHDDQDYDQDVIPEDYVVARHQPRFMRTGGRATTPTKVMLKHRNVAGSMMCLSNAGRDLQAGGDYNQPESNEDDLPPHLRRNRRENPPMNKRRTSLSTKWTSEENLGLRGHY

| Compound | AC50 |
| --- | --- |
| CCS(=O)(=O)C1=NN2C(=N)/C(=C\c3ccc(SCc4ccco4)o3)C(=O)N=C2S1 | 10.4 µM |
| CCOCCCn1c(=N)c(S(=O)(=O)c2ccccc2)cc2c(=O)n3cc(C)ccc3nc21 | 10.3 µM |
| CCCOc1cc(N(CC)CC)ccc1/C=C(/C#N)c1nc2ccc(C)cc2[nH]1 | 6.33 µM |
| CCCC1C2CN(C(C)C)CC=C2C(C#N)=C(N)C1(C#N)C#N (stereo not drawn) | 4.99 µM |
| CCOC(=O)/C(=C/c1ccc(N2CCC(c3ccccc3)=N2)cc1)C(C)=O | 2.43 µM |
| O=C1C(Cl)=C(NC2CCCCC2)C(=O)N1c1ccc(Cl)cc1 | > 10 µM (inactive) |

same assay, conditions: purified MEX-5-MBP, FITC-TCR2 RNA fluorescence polarization; at 10 µM (top of the series)

| Compound | activity change, negative = inhibition |
| --- | --- |
| CCCOc1ccc([C@@H]2C3CN(C(=O)OCC)CC=C3C(C#N)=C(N)C2(C#N)C#N)cc1OC (stereo partly drawn) | inactive |
| O=C(NNC(=O)c1ccccc1[N+](=O)[O-])c1ccco1 | inactive |
| CNC(=O)c1c(NC(=O)c2nc3ccccc3s2)sc2c1CCC2 | inactive |
| Oc1cccc(NC(=S)N=Nc2c(O)[nH]c3ccc(Br)cc23)c1 | inactive |
| COc1ccc2nc3ccccc3nc2c1N | inactive |
| COC(=O)c1ccc(-c2ccc(C(c3c(C)[nH][nH]c3=O)c3c(C)[nH][nH]c3=O)o2)cc1 | inactive |
| COc1cccc(NCc2cc(=O)oc3cc(C)c(O)cc23)c1 | inactive |
| O=C(NNC(=O)c1ccccc1Cl)c1csc(N2CCOCC2)n1 | inactive |
| COC(=O)c1cccc(-c2ccc(C(c3c(C)[nH][nH]c3=O)c3c(C)[nH][nH]c3=O)o2)c1 | inactive |
| CCN(CC)c1ccc(N2C(=O)c3ccccc3C2=O)cc1 | inactive |
| NC(=S)N=Nc1c(O)[nH]c2cc(F)c(F)cc12 | inactive |
| Cc1ccc(Nc2nc(-c3ccc(O)cc3O)cs2)nc1 | inactive |
| O=c1[nH]cnc2c1C(c1ccccc1[N+](=O)[O-])c1c(nc[nH]c1=O)O2 | inactive |
| O=[N+]([O-])c1ccc(C2=CSC3=NCCN23)cc1 | inactive |
| N=C1C(c2nc3ccccc3[nH]2)=C(O)CN1c1ccccc1 | inactive |
| CC(C#N)(Nc1ccc(Cl)cc1)c1cccnc1 (stereo not drawn) | inactive |
| CCN(CC)c1ccc2nc3ccccc3[n+](CC)c2c1 | inactive |
| Cc1cc(C)c2ccc(C(=O)O)nc2c1O | inactive |
| COC1=C(Nc2ccc(O)cc2)C(=O)c2ccccc2C1=O | inactive |
| COc1cc(/C=N/NC(=S)Nc2cccc(C(=O)O)c2)ccc1O | inactive |
| Cn1cc(CNC(=O)C2c3ccccc3Oc3ccccc32)cn1 | inactive |

| Compound | activity change, negative = inhibition |
| --- | --- |
| CSc1nsc2nc(=O)c(/C=C3\C(C)=Nc4ccc(C)cc43)c(N)n12 | inactive |
| O=C(Nc1cccc2ncccc12)c1ccccc1[N+](=O)[O-] | inactive |
| COc1ccccc1-c1cn[nH]c1-c1ccc(O)cc1O | inactive |
| COc1cc(/C=N/NC(=O)CNS(=O)(=O)c2ccc(C)cc2)cc(OC)c1OC | inactive |
| CCOC(=O)[C@]1(C#N)[C@@H]2C=CC(C(N)=O)=CN2[C@@H](C(N)=O)[C@@H]1c1ccc(F)cc1 | inactive |
| N=C(N)N=Nc1c(O)[nH]c2ccc(Br)cc12 | inactive |
| CC1=C(C(=O)OCc2ccccc2)C(c2ccc(N(C)C)cc2)NC(=O)N1 (stereo not drawn) | inactive |
| Cc1nc2ccc(NC(=O)NC(=O)c3c(Cl)cccc3Cl)cc2o1 | inactive |
| COc1ccc(NC(=O)/C=C/c2cccc(C(F)(F)F)c2)cn1 | inactive |
| COc1ccc2c(c1)-c1ccccc1S(=O)(=O)N2C(C)=O | inactive |
| CN1CN(C)c2ccc([N+](=O)[O-])c3cccc1c23 | inactive |
| COC(=O)c1cc2c(-c3ccccc3)c(C)c3ccccn3c-2c1C(=O)OC | inactive |
| CCc1ccc(/C=C2\Oc3cc(OS(C)(=O)=O)ccc3C2=O)cc1 | inactive |
| Cc1cccc(C(=O)NNC(=O)c2csc(N3CCOCC3)n2)c1C | inactive |
| CN1C(=O)N(C)C(c2cccc([N+](=O)[O-])c2)C2=C1CCCC2=O (stereo not drawn) | inactive |
| CCS(=O)(=O)c1ccc2oc(=O)c(/C=C(\O)c3ccc(Cl)cc3)nc2c1 | inactive |
| CC(=O)Nc1ccc(/C=N/NC(=O)CNS(=O)(=O)c2ccccc2)cc1 | inactive |
| CCCCCC(=O)N(Cc1ccccc1)c1c(N)n(CCOC)c(=O)[nH]c1=O | inactive |
| CSCCCN1CCC(n2nccc2NC(=O)CCCc2ccccc2)CC1 | inactive |
| O=C(O)c1ccc(NCc2cccnc2)cc1 | inactive |
| CC1CN2C(c3ccc(Cl)cc3)=CSC2=N1 (stereo not drawn) | inactive |

| Compound | activity change, negative = inhibition |
| --- | --- |
| Cc1ccc(-c2cc(C(=O)Nc3ccc(S(=O)(=O)Nc4ncccn4)cc3)[nH]n2)c(O)c1C | inactive |
| NC1=NC(=O)/C(=C\c2ccc(O)c([N+](=O)[O-])c2)S1 | inactive |
| O=c1cc(-c2ccccc2)oc2ccc(O)cc12 | inactive |
| Cc1cc(=O)oc(C)c1C(=O)Nc1c(C)n(C)n(-c2ccccc2)c1=O | inactive |
| N#CC1=C(N)Oc2c(O)cc3ccccc3c2C1c1ccsc1 (stereo not drawn) | inactive |
| CSc1ccc(C(c2c(C(=O)O)[nH]c3ccccc23)c2c(C(=O)O)[nH]c3ccccc23)cc1 | inactive |
| COC(=O)c1cc(NC(=O)c2ccccc2)c(=O)oc1C | inactive |
| Cc1ccc(C(=O)N/C(=C\c2ccc(-c3cccc([N+](=O)[O-])c3)o2)C(=O)NCCCN(C)C)cc1 | inactive |
| O=C(Nc1ccc(OCc2ccccc2)cc1)Nc1cccnc1 | inactive |
| CCOc1ccc(/C=N/n2c(C)nc3ccccc3c2=O)cc1 | inactive |
| c1cncc(C2CC(c3cccs3)n3ncnc3N2)c1 (stereo not drawn) | inactive |
| N=C1C(c2nc3ccccc3[nH]2)=C(O)CN1c1ccc(F)cc1 | inactive |
| COC(=O)c1cccc2nc3c(C(C)O)cccc3nc12 (stereo not drawn) | inactive |
| Cc1ccc(-c2nc(C=Nc3cccc(C)c3)c(O)o2)cc1 | inactive |
| Cc1ccc(C(=O)NNc2ncnc3c2cnn3C)cc1 | inactive |
| CN1C(=O)NC(c2ccccc2Cl)C2=C1CC(C)(C)CC2=O (stereo not drawn) | inactive |
| Cc1ccc(NC(=O)CCC(=O)NNC(=S)Nc2ccccc2)c(C)c1 | inactive |
| Nc1ccc([N+](=O)[O-])cc1C(=O)NNC(=O)c1ccco1 | inactive |
| CC(=O)N1CCc2c(sc(NC(=O)C3CCCN3S(=O)(=O)c3cccs3)c2C#N)C1 (stereo not drawn) | inactive |
| CS(=O)(=O)c1nsc2nc(=O)c(/C=C3\C=Nc4ccccc43)c(N)n12 | inactive |

Reference: PubChem BioAssay AID493250 (Broad Institute, 2011)
